From patent EP0745390A2, “Polymeric prodrugs for beta-lactamase and uses thereof” (priority 1995, dated 1996)

Key:
[1] = tested on: H2981 human lung adenocarcinoma cell line; assay: In vitro cytotoxicity assay, incorporation of [^3H] thymidine into DNA; assay type: cell-based; conditions: H2981 cells, non-conjugate treated, doxorubicin instead of PEG-AC-Dox (Figure 3)
[2] = in mice; cited from earlier work
[3] = Toxicity in nude mice (maximum tolerated dose), single intravenous injection
[4] = target: bL (Enterobacter cloacae, UniProt P05364); assay type: biochemical; conditions: 3-4 independently run experiments
Sequence of bL (P05364 21-381): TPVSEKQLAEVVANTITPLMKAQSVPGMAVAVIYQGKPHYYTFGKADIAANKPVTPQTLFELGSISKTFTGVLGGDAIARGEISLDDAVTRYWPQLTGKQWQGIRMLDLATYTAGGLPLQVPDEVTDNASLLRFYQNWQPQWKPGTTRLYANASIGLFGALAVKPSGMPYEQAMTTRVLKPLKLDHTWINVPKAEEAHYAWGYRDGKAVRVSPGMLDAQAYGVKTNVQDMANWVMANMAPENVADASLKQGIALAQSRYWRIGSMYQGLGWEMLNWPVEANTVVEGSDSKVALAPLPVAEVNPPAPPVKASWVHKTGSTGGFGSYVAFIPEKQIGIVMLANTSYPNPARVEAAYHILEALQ

For COc1cccc2c1C(=O)c1c(O)c3c(c(O)c1C2=O)C[C@@](O)(C(=O)CO)C[C@@H]3O[C@H]1C[C@H](N)[C@H](O)[C@H](C)O1 [doxorubicin], the IC50 [1] is given as 100 to 200 nM, the initial half life [2] is given as 2 min and the maximum tolerated dose ([3]; nude mice, single intravenous injection, dose giving < 20% weight loss, no deaths) is given as 13.8 µmol/kg body weight. The MTD ([3]; nude, mouse, in vivo, iv) was 8 mg/kg.
Work on COc1cccc2c1C(=O)c1c(O)c3c(c(O)c1C2=O)C[C@@](O)(C(=O)CO)C[C@@H]3O[C@H]1C[C@H](NC(=O)OCC2=C(C(=O)O)N3C(=O)[C@@H](NC(=O)Cc4ccccc4)[C@H]3SC2)[C@H](O)[C@H](C)O1 [C-Dox, 7-phenylacetylcephalosporin doxorubicin] yielded a Vmax ([4]; hydrolysis by bL in phosphate buffered saline containing bovine serum albumin) of 400 ± 96 µmol/mim /mg, a Km ([4]; hydrolysis by bL) of 46 ± 6 µM and a kcat ([4]; hydrolysis by bL) of 280 ± 67 s⁻¹.
